Source: publication PMC6981123 (2020)

What was measured:
[1] = system: h-TELO (dual-labeled) (DNA, G4) AGGGTTAGGGTTAGGGTTAGGG; experiment: FRET melting; details: 100 mM K+; 10 mM HEPES, pH 7.4; MG 1.5 μM (3 equiv.), DNA 0.5 μM; Tm 49 to 76 °C
[2] = system: h-TELO (DNA, G4) AGGGTTAGGGTTAGGGTTAGGG; experiment: ITC; details: 100 mM K+; 10 mM HEPES, pH 7.4, 298 K; h-TELO 5 μM in cell
[3] = system: h-TELO (DNA, G4) AGGGTTAGGGTTAGGGTTAGGG; experiment: fluorescence titration of MG emission; details: 100 mM K+; 10 mM HEPES, pH 7.4, 25 °C; MG 10 μM, h-TELO 0-6 μM

- ΔTm [1]: 27 °C
- Kd [2]: 4.48 µM
- Kd [3]: 3.2 µM
Compound: CCCCCCCCCCCCCCCCCC(=O)NCc1cn(CCCC(=O)OC[C@H]2O[C@@H](n3cnc4c(=O)[nH]c(N)nc43)[C@@H]3OC(C)(C)O[C@@H]32)nn1
